For one test, the target named is T1, human TRPV1 (Homo sapiens, UniProt Q8NER1).
T1 construct: expressed in transfected cells; host or cells: HEK293 (hTRPV1/HEK293), zeocin selection
In words: Functional assay: block of capsaicin-induced Ca2+ influx, human assay (hTRPV1/HEK293, FLIPR). Format: cell-based. As to conditions: hTRPV1/HEK293 cells, 150 nM capsaicin challenge, Fluo-3 fluorescence; mean; > value = solubility limit in assay medium. In outline:
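HEK293 cells stably expressing human TRPV1, fluo3-loaded, preincubated 30 min with compound (serial 3-fold dilutions from 10 μM, duplicate) in 20 μM Ca2+ buffer. Capsaicin response taken as fluo3 fluorescence change before vs 100 s after agonist; IC50 by non-linear regression, mean values; free base or TFA salt.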

The target of the next test is T2, rat TRPV1 (Rattus norvegicus, UniProt O35433).
T2 construct: expressed in transfected cells; host or cells: HEK293 (rTRPV1/HEK293), geneticin selection
T2 sequence (O35433 whole entry): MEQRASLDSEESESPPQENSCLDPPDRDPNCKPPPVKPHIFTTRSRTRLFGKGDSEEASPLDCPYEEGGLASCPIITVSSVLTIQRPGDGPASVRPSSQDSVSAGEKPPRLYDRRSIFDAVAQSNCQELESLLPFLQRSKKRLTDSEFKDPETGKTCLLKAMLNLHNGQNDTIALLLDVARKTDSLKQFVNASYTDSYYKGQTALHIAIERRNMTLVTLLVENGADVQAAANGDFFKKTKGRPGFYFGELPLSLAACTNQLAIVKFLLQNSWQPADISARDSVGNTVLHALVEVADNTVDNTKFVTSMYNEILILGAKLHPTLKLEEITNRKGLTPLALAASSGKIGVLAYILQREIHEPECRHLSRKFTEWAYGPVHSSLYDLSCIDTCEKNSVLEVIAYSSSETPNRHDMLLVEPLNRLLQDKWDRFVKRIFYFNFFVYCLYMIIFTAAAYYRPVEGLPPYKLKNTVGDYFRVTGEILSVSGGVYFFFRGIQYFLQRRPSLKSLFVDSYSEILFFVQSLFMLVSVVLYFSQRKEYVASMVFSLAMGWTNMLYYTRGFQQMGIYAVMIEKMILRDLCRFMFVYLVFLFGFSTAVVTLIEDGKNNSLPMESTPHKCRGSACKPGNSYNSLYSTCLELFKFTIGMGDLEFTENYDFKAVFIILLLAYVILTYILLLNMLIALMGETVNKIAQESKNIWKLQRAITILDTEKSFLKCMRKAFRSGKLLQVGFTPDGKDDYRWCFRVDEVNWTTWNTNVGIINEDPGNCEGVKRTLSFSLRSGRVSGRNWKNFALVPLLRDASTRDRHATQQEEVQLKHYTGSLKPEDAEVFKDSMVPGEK
In words: Functional assay: block of capsaicin-induced Ca2+ influx, rat assay (rTRPV1/HEK293, FLIPR). Format: cell-based. As to conditions: rTRPV1/HEK293 cells, capsaicin challenge, Fluo-3 fluorescence; mean; > value = solubility limit in assay medium. In outline:
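Compounds, as free base or TFA salt, tested from 10 μM in three-fold steps on rTRPV1-transfected HEK293 cells, with 30 min preincubation in low-calcium (20 μM) buffer. Capsaicin-evoked Ca2+ influx measured by FLIPR fluo3 signal before and 100 s after addition. Averaged IC50 from non-linear fits.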

Structures are written as SMILES.

T1 sequence (Q8NER1 whole entry): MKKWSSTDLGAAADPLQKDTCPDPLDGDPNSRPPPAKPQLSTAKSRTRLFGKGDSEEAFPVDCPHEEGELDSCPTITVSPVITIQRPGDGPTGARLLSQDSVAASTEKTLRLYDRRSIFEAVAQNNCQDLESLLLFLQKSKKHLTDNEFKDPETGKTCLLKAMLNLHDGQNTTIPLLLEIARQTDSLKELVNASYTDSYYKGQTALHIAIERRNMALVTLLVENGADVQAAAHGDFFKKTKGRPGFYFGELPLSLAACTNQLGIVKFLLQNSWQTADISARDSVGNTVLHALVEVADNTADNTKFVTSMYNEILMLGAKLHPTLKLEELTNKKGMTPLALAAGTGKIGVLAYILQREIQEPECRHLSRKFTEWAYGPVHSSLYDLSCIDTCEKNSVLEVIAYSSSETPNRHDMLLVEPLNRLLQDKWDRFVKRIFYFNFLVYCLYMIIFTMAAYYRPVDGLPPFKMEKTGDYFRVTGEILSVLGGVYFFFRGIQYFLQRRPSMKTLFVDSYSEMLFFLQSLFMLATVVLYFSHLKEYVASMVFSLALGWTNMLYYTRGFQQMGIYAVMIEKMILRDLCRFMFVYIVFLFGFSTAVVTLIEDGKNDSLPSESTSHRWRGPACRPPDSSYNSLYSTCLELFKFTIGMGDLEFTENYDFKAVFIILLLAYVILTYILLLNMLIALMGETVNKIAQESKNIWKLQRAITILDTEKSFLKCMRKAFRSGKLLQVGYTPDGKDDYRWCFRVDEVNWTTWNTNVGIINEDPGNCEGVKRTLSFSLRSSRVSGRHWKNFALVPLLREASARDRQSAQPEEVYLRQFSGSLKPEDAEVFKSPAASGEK

Regarding `Cc1nc(Nc2ccccc2)c2nc(Nc3c(C)cccc3C)sc2n1` [Example 141, N^2-(2,6-Dimethyl-phenyl)-5-methyl-N^7-phenyl-thiazolo[5,4-d]pyrimidine-2,7-diamine], the IC50 on human TRPV1 amounted to 350 nM; at rat TRPV1, 223 nM.
In the case of `CC(=O)c1ccc(Nc2ncnc3sc(Nc4c(C)cccc4C)nc23)cc1` [Example 128, 1-{4-[2-(2,6-Dimethyl-phenylamino)-thiazolo[5,4-d]pyrimidin-7-ylamino]-phenyl}-ethanone], the values for the IC50 at human TRPV1 and on rat TRPV1 were 138 nM and 121 nM, respectively.
On the same counts, the results for `FC(F)(F)c1ccc(Nc2ncnc3sc(NC4CCCCC4)nc23)cc1` [Example 232, N^2-Cyclohexyl-N^7-[4-(trifluoromethyl)phenyl][1,3]thiazolo[5,4-d]pyrimidine-2,7-diamine] are more than 6670 nM and 3190 nM.
As to `Cc1cccc(C)c1Nc1nc2c(Nc3ccc(SC(F)(F)F)cc3)ncnc2s1` [Example 40, N^2-(2,6-Dimethyl-phenyl)-N^7-(4-trifluoromethylsulfanyl-phenyl)-thiazolo[5,4-d]pyrimidine-2,7-diamine], the IC50 against human TRPV1 was determined as 67 nM; against rat TRPV1, 16 nM.
On the same counts, the results for `Cc1ccccc1Nc1nc2c(Nc3ccc(C(F)(F)F)nc3)ncnc2s1` [Example 218, N^2-(2-Methylphenyl)-N^7-[6-(trifluoromethyl)pyridin-3-yl][1,3]thiazolo[5,4-d]pyrimidine-2,7-diamine] are 55 nM and 24 nM.
The matching figures for `Clc1cccc(Cl)c1Nc1nc2c(Nc3ccccc3)ncnc2s1` [Example 204, N^2-(2,6-Dichloro-phenyl)-N^7-phenyl-thiazolo[5,4-d]pyrimidine-2,7-diamine]: 213 nM and 226 nM.

As a reminder, the IC50 is the concentration needed to halve the response being measured.

Source of the values: patent US20080004253A1, “Thiazolopyrimidine modulators of TRPV1” (priority 2006, published 2008).
